Legend:
[1] = biological target: T1, Thyroid hormone receptor alpha (Homo sapiens, UniProt P10827); assay: Binding affinity to TRalpha1
T1 sequence (P10827 whole entry): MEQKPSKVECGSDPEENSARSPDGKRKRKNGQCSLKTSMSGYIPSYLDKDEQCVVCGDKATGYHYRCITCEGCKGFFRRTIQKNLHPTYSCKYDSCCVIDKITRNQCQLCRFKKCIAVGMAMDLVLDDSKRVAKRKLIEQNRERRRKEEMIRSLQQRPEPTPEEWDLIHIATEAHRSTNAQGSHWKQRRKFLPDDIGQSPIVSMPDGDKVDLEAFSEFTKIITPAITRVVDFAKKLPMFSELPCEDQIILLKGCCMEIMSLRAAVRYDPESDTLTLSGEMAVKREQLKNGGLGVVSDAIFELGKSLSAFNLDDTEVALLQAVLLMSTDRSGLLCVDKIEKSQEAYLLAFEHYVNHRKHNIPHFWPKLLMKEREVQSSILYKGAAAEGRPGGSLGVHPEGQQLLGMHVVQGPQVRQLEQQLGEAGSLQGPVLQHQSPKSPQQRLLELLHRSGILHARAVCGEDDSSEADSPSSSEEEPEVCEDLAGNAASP

[2] = biological target: T2, Thyroid hormone receptor beta (Homo sapiens, UniProt P10828); assay: Binding affinity to TRbeta1
T2 sequence (P10828 whole entry): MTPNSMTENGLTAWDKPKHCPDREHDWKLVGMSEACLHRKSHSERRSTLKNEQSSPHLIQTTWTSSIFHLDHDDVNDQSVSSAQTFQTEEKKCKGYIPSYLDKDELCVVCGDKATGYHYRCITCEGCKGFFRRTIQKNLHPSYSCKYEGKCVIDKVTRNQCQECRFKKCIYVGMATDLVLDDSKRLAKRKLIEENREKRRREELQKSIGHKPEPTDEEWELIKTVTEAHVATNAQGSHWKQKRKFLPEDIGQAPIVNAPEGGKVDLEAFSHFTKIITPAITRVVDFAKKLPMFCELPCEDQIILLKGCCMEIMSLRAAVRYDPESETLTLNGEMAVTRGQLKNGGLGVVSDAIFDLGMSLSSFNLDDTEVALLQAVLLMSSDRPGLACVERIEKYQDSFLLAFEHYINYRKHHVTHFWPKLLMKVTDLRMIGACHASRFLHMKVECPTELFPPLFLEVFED

Homo sapiens [3] = assay: Antidyslipidemic activity in obese, hypercholesterolemic patient assessed as reduction in LDL cholesterol at 100 ug administered QD for 2 weeks relative to control; format: functional; design: scale not given: the % may be the effect or the level left
Rattus norvegicus = assay: Antidyslipidemic activity in po dosed cholesterol fed rat assessed as reduction in cholesterol level administered QD; format: functional
Homo sapiens [4] = assay: Antidyslipidemic activity in human assessed as reduction in LDL cholesterol at 100 ug administered QD relative to control; format: functional; design: scale not given: the % may be the effect or the level left

With `O=C(O)Cc1cc(Cl)c(Oc2ccc(O)c(C(=O)NCC(c3ccccc3)c3ccccc3)c2)c(Cl)c1` the EC50 [1] was 0.018 µM and the EC50 [2] was 0.00047 µM.
`O=C(O)Cc1cc(Cl)c(Oc2ccc(O)c(-c3ccccc3)c2)c(Cl)c1` was tested, and the EC50 [1] was 0.152 µM and the EC50 [2] was 0.0029 µM.
`CC(C)c1cc(Oc2c(Br)cc(NC(=O)CC(=O)O)cc2Br)ccc1O` [EPROTIROME] was tested, and the Activity (Homo sapiens [3]) was 40%.
`Cc1cc(OCP2(=O)OCC[C@@H](c3cccc(Cl)c3)O2)cc(C)c1Cc1ccc(O)c(C(C)C)c1` (stereo partly drawn) [MB07811] gave a Ki [2] of 0.6 µM and an ED50 (Rattus norvegicus) of 0.4 mg/kg.
`Cc1cc(OCC(=O)O)cc(C)c1Cc1ccc(O)c(C(C)C)c1` [SOBETIROME] gave an Activity (Homo sapiens [4]) of 41%.

— ChEMBL document CHEMBL2203261, “Selective thyromimetics using receptor and tissue selectivity approaches: prospects for dyslipidemia” (J Med Chem, 2012)
